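Growth conditions: 96-well plates. Treatment: test compound, 48 hours, 5 concentrations. Analysis: linear interpolation between bracketing concentrations; unreached endpoints set to highest concentration. GI50 is the concentration that inhibits growth by half.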 The source made the active and inactive calls. No stated cut-off is given here; in the data, active = GI50 up to about 1.1 µM and inactive = higher.

Results on 12 molecules are retold here after ChEMBL document CHEMBL1201862, “PubChem BioAssay data set” (2004).

Among the test systems are NCI-H522; SK-MEL-28; NCI-H23; UO-31; RPMI-8226; U-251; HCT-15; HOP-62; SNB-19; SW-620; EKVX; KM12; HOP-18; LOX IMVI; HCC 2998; Malme-3M; MOLT-4; NCI-H460; MCF7; PC-3.
Holding throughout (test): NCI-60 cell line screen, 48 h

For the molecule `CCC12C=C(C(=O)OC)N3c4ccccc4C4CCN(CCC1)C2C43` (stereo unspecified), the GI50 was 75.7 µM (inactive) in the experiment on NCI-H522; 95.7 µM (inactive) in the experiment on SK-MEL-28; 99.3 µM (inactive) in the experiment with NCI-H23; 77.3 µM (inactive) in the experiment with UO-31; 50.6 µM (inactive) with RPMI-8226; 82.4 µM (inactive) with U-251. Moreover, the GI50 was 64.3 µM with HCT-15; 38.9 µM (inactive) in the experiment with HOP-62; 72.4 µM (inactive) in the experiment on SNB-19; 59.7 µM (inactive) with SW-620; > 100 µM (inactive) in the experiment on EKVX; 48.3 µM (inactive) in the experiment on KM12. In addition, the GI50 in the experiment with HOP-18 is > 100 µM (inactive); with LOX IMVI it was 59.4 µM (inactive); in the experiment on HCC 2998, 29.7 µM (inactive); in the experiment with Malme-3M it was 18.8 µM (inactive); in the experiment on MOLT-4 it was 66.8 µM (inactive).
`CC1=N/C(=C\c2cccc3ccccc23)C(=O)O1`: the GI50 with NCI-H522, in the experiment with SK-MEL-28, in the experiment with NCI-H23, with UO-31, in the experiment with RPMI-8226 and in the experiment with U-251 was > 100 µM (inactive) each time. For the same molecule, the GI50 is greater than 100 µM with HCT-15; > 100 µM (inactive) with HOP-62; > 100 µM (inactive) in the experiment with SNB-19; > 100 µM (inactive) with SW-620; > 100 µM (inactive) in the experiment on NCI-H460; > 100 µM (inactive) with EKVX. Besides, the GI50 with KM12 was > 100 µM (inactive); in the experiment on HOP-18 it was 10.6 µM (inactive); in the experiment on HCC 2998 it was > 100 µM (inactive); in the experiment with Malme-3M, > 100 µM (inactive); in the experiment with MOLT-4, > 100 µM (inactive).
For the molecule `C=C1CCC(OC(C)=O)C2(C)C(OC(C)=O)CC3OC3(C)C2C(OC(C)=O)C2C(C)C(=O)OC2C1Cl` (stereo unspecified), the GI50 in the experiment on SK-MEL-28 was > 100 µM (inactive); in the experiment on NCI-H23, > 100 µM (inactive); in the experiment with UO-31 it was > 100 µM (inactive); in the experiment with RPMI-8226 it was > 100 µM (inactive); in the experiment on U-251, > 100 µM (inactive); in the experiment with HCT-15, greater than 100 µM. Also, the GI50 in the experiment on HOP-62, in the experiment with SNB-19, in the experiment with SW-620, in the experiment on NCI-H460, with EKVX and in the experiment on KM12 was > 100 µM (inactive) in each case. Besides, the GI50 in the experiment with HOP-18, in the experiment with LOX IMVI, with HCC 2998, in the experiment with Malme-3M and with MOLT-4 was > 100 µM (inactive) in each case.
In the case of `Cc1nc2ccccn2c1/N=N/c1ccc(C(=O)NN)cc1`, the GI50 is 80.9 µM (inactive) with SK-MEL-28; 28.9 µM (inactive) with NCI-H23; 36.9 µM (inactive) in the experiment on UO-31; 28.4 µM (inactive) in the experiment with RPMI-8226; 61.7 µM (inactive) in the experiment with U-251; 54.2 µM with HCT-15. Also, the GI50 was 38.3 µM (inactive) in the experiment on HOP-62; 49.5 µM (inactive) in the experiment with SNB-19; 49.3 µM (inactive) with SW-620; 36.5 µM (inactive) in the experiment on EKVX; 70.6 µM (inactive) in the experiment on HOP-18; 26.3 µM (inactive) in the experiment with LOX IMVI. Further, the GI50 in the experiment on HCC 2998 is 75.7 µM (inactive); with Malme-3M it was > 100 µM (inactive); in the experiment on MOLT-4 it was 5.02 µM (inactive).
For `C[n+]1c2ccccc2c(CNC(CS)C(=O)O)c2ccccc21` (stereo unspecified), the GI50 is 17.8 µM (inactive) in the experiment on NCI-H522; 25.9 µM (inactive) with NCI-H23; 18 µM (inactive) in the experiment on UO-31; 16.9 µM (inactive) in the experiment on RPMI-8226; 24.2 µM (inactive) in the experiment on U-251; 20.7 µM with HCT-15. Also, the GI50 was 15.5 µM (inactive) in the experiment with HOP-62; 32.7 µM (inactive) in the experiment with SNB-19; 32.4 µM (inactive) in the experiment with SW-620; 21.8 µM (inactive) in the experiment on NCI-H460; 19 µM (inactive) in the experiment with EKVX; 19.7 µM (inactive) in the experiment with KM12. Further, the GI50 is 49.1 µM (inactive) in the experiment with HOP-18, 31.5 µM (inactive) in the experiment with HCC 2998, 37.8 µM (inactive) with Malme-3M and 12.4 µM (inactive) in the experiment on MOLT-4.
`C[S+]=c1sc2ccccc2s1`: the GI50 with NCI-H522 is > 100 µM (inactive); in the experiment with UO-31, > 100 µM (inactive); in the experiment with RPMI-8226, > 100 µM (inactive); in the experiment on U-251, > 100 µM (inactive); in the experiment on HCT-15, greater than 100 µM; in the experiment with HOP-62 it was > 100 µM (inactive). Also, the GI50 with SNB-19, in the experiment with SW-620, in the experiment on NCI-H460, with KM12, with HOP-18 and in the experiment on LOX IMVI was > 100 µM (inactive) each time. Besides, the GI50 in the experiment on HCC 2998, with Malme-3M and with MOLT-4 was > 100 µM (inactive) throughout.
Regarding `Cc1ccc(S(=O)(=O)N/N=C2\C(=O)C3CC2C(Cl)C3Cl)cc1` (stereo unspecified), the GI50 with SK-MEL-28 is > 100 µM (inactive); in the experiment on NCI-H23, > 100 µM (inactive); in the experiment on UO-31, > 100 µM (inactive); in the experiment with RPMI-8226 it was > 100 µM (inactive); in the experiment on U-251, > 100 µM (inactive); in the experiment with HCT-15, greater than 100 µM. For the same molecule, the GI50 in the experiment on HOP-62, in the experiment with SNB-19, in the experiment with SW-620, with NCI-H460, in the experiment on HOP-18 and in the experiment on LOX IMVI was > 100 µM (inactive) each time. Further, the GI50 in the experiment with HCC 2998, with Malme-3M and in the experiment with MOLT-4 was > 100 µM (inactive) in each case.
With `C[C@]12CCC(=O)C(OC(=O)c3ccc([N+](=O)[O-])cc3)=C1CCC2=O`, the GI50 in the experiment with NCI-H522 was > 100 µM (inactive); in the experiment with SK-MEL-28 it was > 100 µM (inactive); with RPMI-8226 it was > 100 µM (inactive); in the experiment on U-251, > 100 µM (inactive); in the experiment on HCT-15, greater than 100 µM; in the experiment with HOP-62, > 100 µM (inactive). The GI50 with SNB-19, with SW-620, in the experiment with NCI-H460, in the experiment with EKVX, in the experiment on KM12 and in the experiment on HOP-18 was > 100 µM (inactive) throughout. The GI50 in the experiment with LOX IMVI, in the experiment with HCC 2998, in the experiment on Malme-3M and in the experiment with MOLT-4 was > 100 µM (inactive) in each case.
Regarding `CC(C)C[C@H](NC(=O)[C@H](Cc1ccccc1)NC(=O)CCc1ccccc1)B(O)O`, the GI50 in the experiment on NCI-H522, with SK-MEL-28, with NCI-H23, with UO-31, with RPMI-8226 and in the experiment with U-251 was < 0.01 µM (active) each time. In addition, the GI50 with MCF7 was < 0.01 µM (active); in the experiment with HCT-15, less than 0.01 µM; with HOP-62, < 0.01 µM (active); with SNB-19 it was < 0.01 µM (active); in the experiment with PC-3, < 0.01 µM (active); with SW-620, < 0.01 µM (active). For the same molecule, the GI50 with NCI-H460, in the experiment with EKVX, in the experiment on KM12, in the experiment on LOX IMVI, in the experiment on HCC 2998 and with Malme-3M was < 0.01 µM (active) throughout. In addition, the GI50 in the experiment on MOLT-4 was < 0.01 µM (active).
With `Nc1nc(Cl)cc(NCC2(O)CC(CO)C2)n1` (stereo unspecified), the GI50 with NCI-H522, in the experiment on SK-MEL-28, with NCI-H23, in the experiment on UO-31, in the experiment with RPMI-8226 and with U-251 was > 100 µM (inactive) each time. Besides, the GI50 in the experiment on MCF7 was > 100 µM (inactive); in the experiment on HCT-15 it was greater than 100 µM; in the experiment with HOP-62, > 100 µM (inactive); with SNB-19, > 100 µM (inactive); in the experiment with PC-3, > 100 µM (inactive); in the experiment with SW-620, > 100 µM (inactive). For the same molecule, the GI50 in the experiment on NCI-H460, in the experiment on EKVX, in the experiment with KM12, in the experiment on LOX IMVI, in the experiment with HCC 2998 and in the experiment with Malme-3M was > 100 µM (inactive) throughout. Also, in the experiment on MOLT-4, the GI50 is > 100 µM (inactive).
Take `O=C(CC1Sc2ccccc2NC1=O)Nc1ccc([N+](=O)[O-])cc1[N+](=O)[O-]` (stereo unspecified): the GI50 in the experiment on SK-MEL-28 is 17.7 µM (inactive); in the experiment with NCI-H23, 13.1 µM (inactive); in the experiment on UO-31, 12 µM (inactive); in the experiment on RPMI-8226, 11.3 µM (inactive); with U-251 it was 16 µM (inactive); in the experiment on HOP-62, 40.6 µM (inactive). The GI50 in the experiment on SNB-19 was 19.5 µM (inactive); in the experiment on SW-620, 18.4 µM (inactive); with NCI-H460, 23.7 µM (inactive); with EKVX, 32.2 µM (inactive); in the experiment with KM12, 21.7 µM (inactive); in the experiment on HOP-18, 3.39 µM (inactive). In addition, the GI50 is 16.2 µM (inactive) in the experiment with LOX IMVI, 50.9 µM (inactive) in the experiment with HCC 2998, 19.8 µM (inactive) in the experiment on Malme-3M and 20.1 µM (inactive) with MOLT-4.
As to `COc1c(O)cc2c(c1O)C(=O)C1=C(CCCC1)C2=O`, the GI50 was 13 µM (inactive) in the experiment with NCI-H522; 24 µM (inactive) with SK-MEL-28; 15.5 µM (inactive) in the experiment with NCI-H23; 7.24 µM (inactive) in the experiment on UO-31; 9.53 µM (inactive) in the experiment on RPMI-8226; 21 µM (inactive) with U-251. Further, the GI50 in the experiment with MCF7 is 33.9 µM (inactive); with HCT-15, 26.1 µM; in the experiment with HOP-62, 33.4 µM (inactive); in the experiment on SNB-19, 31.5 µM (inactive); in the experiment with PC-3, 22.8 µM (inactive); in the experiment with SW-620, 27.4 µM (inactive). Besides, the GI50 with NCI-H460 was 27.1 µM (inactive); in the experiment with EKVX, 22.6 µM (inactive); in the experiment with KM12, 20.2 µM (inactive); in the experiment on LOX IMVI it was 14.7 µM (inactive); with HCC 2998 it was 21.9 µM (inactive); in the experiment on Malme-3M, 25.8 µM (inactive). For the same molecule, the GI50 with MOLT-4 is 4.8 µM (inactive).
